{"source": "patent US20120107323A1", "about": "“KINASE PROTEIN BINDING INHIBITORS” (University of Florida, priority 2009, published 2012)", "key": {"[1]": {"system": "MCF7 breast cancer cells", "test": "Cell viability (MTT), MCF7", "type": "cell-based", "conditions": "Homo sapiens; MCF7, 72 hours; read-out: IC50 of INT2-31, cell viability", "protocol": "Cell viability (MTT) and CFSE Proliferation assay: Cells were plated in 96-well plates and let adhere overnight. After cell treatment, cell viability was measured by 3-(4,5-dimethylthiazol-2-yl)-2,5-diphenyl tetrazolium bromide (MTT) assay (CellTiter 96® Aqueous, Promega, Madison, Wis.).\nCell viability and detachment assays: After cells were treated with siRNA transfection, cell viability was measured by 3-(4,5-dimethylthiazol2-yl)-2,5-diphenyl tetrazolium bromide (MTT) assay (CellTiter 96® AQueous, Promega, Madison, Wis.). Briefly, 20 μl of the tetrazolium compound was added to each well. The cells were then incubated at 37° C. for 1 h. The plate was read at 490 nm with a plate reader to determine the viability. In detachment assays, detached and attached cells were harvested separately and counted in a hemocytometer. The percentage of detachment was calculated by dividing the number of detached cells by the total number of cells. Apoptosis assays: After treatment, attached and detached cells were collected, counted and prepared for terminal uridine deoxynucleotidyl transferase (TUNEL) assay by utilizing an APO-BRDU kit (BD Pharmingen, San Diego, Calif.) according to the manufacturer's instructions. Stained cells were analyzed with a fluorescence-activated cell sorting-Calibur flow cytometer (BD Biosciences). […] Apoptotic cells were also analyzed by Hoechst staining. […]"}, "[2]": {"system": "Panc-1 orthotopic xenografts", "test": "Orthotopic pancreatic xenograft, Panc-1", "type": "in vivo, mice", "parameters": "dose or concentration left out as unconfirmed", "conditions": "Panc-1, 21 days", "description": "For the orthotopic model of pancreatic cancer, the University of Florida IACUC approved the following protocol (IACUC Study #2000801506). The pancreatic cancer cell lines, Mia paca-2 and Panc-1 cells were stably transfected using luciferase-RFP (red fluorescent protein) reporter gene for in vivo imaging of the xenografts. Following expansion and sorting of RFP positive cells, cells were expanded in culture and 5×10^6 tumor cells were implanted into the pancreas of 20 mice. For intra-pancreatic implantation of cells, mice were anesthetized with Isoflurane using the ACS provided and maintained rodent anesthesia machine. Under sterille surgical conditions, via 1.0 cm incision of the skin, abdominal wall and peritonium, the spleen was retracted and cells were injected in […] into the tail of the pancreas using a 29-gauge needle. The abdominal wall and peritoneum was sutured using 5.0 absorbable surgical sutures and the skin was closed with medical glue (dermabond). Postoperative analgesia was 0.05 mg/kg of buprenorphine subcutaneously per 8-12 hours postoperatively.\nMice were hand restrained prior to intraperitoneal injections. Mice were euthanized 6 weeks after tumor innoculation and tumor and tissue collected. As described below, mice were imaged weekly with the IVIS lumina imager and tumor size was estimated by the bioluminescent signal. […]"}, "[3]": {"system": "C8161 melanoma cells", "test": "Detachment assay, C8161 cells", "type": "cell-based, human", "conditions": "C8161, 5 μM, 72 h", "protocol": "In detachment assays, detached and attached cells were harvested separately and counted in a hemocytometer. The percentage of detachment was calculated by dividing the number of detached cells by the total number of cells.\nDetachment assay: Cells were plated with and without compound for 24, 48, and 72 h, and detached and attached cells were counted in a hemocytometer. The percent of detachment was calculated by dividing the number of detached cells by the total number of cells and experiments performed in triplicate. Apoptosis assays: After treatment, attached and detached cells were collected, counted and prepared for terminal uridine deoxynucleotidyl transferase (TUNEL) assay by utilizing an APO-BRDU kit (BD Pharmingen, San Diego, Calif.) and cells analyzed with a FACSCalibur cytometer (Becton Dickinson, San Jose, Calif.). In addition, apoptotic cells were analyzed with Hoechst 33342 staining (1 μg/ml). The percent of apoptotic cells was calculated as the ratio of apoptotic cells to total number of cells."}}, "data": [{"molecule": "CSc1ncnc2c1ccn2C1O[C@H](COP(=O)(O)O)[C@@H](O)[C@H]1O", "note": "(stereo partly drawn) [INT2-31, 4-(Methylthio)-7-(5-O-phosphono-D-ribofuranosyl)-{7H-Pyrrolo[2,3-d]pyrimidine}]", "values": [{"measurement": "IC50", "setting": "[1]", "result": 30, "unit": "nM"}, {"measurement": "growth of the orthotopic pancreatic xenografts", "setting": "[2]", "result": "sufficiently reduced the growth"}, {"measurement": "cells detached from the plate", "setting": "[3]", "result": 7, "unit": "%"}]}]}
